Reference: patent publication US20260345621A1, “GABAA RECEPTOR MODULATORS AND USES THEREOF” (Engrail Therapeutics, Inc., priority 2022, published 2026)
Entries after “also recorded” stand apart in the source; their conditions may differ.

Columns and labels:
Format in all cases: in vivo, human (healthy volunteers)
CNS function (NEUROCART) = tested on: CNS function (NEUROCART)
Experimental: (§1) A clinical study was developed to evaluate safety, tolerability, pharmacokinetics, and pharmacodynamics of Compound 1 at plasma steady-state in 40 healthy human volunteers. […].
(§2) Pharmacodynamic analyses included the NEUROCART® assessments, cognitive assessments Visual Verbal Learning Task (VVLT), and quantitative electroencephalography (qEEG). All PD analyses were based on the PD Analysis Set. For all PD endpoints, the baseline was calculated as average of the Day −1 measurements.
(§3) NEUROCART®, VVLT, and qEEG assessments were listed and summarized (absolute and change from baseline) using descriptive statistics at baseline and at each post-baseline time point. To establish whether significant treatment effects could be detected on the repeatedly measured NEUROCART® parameters, each parameter was analyzed with a mixed model analysis of covariance (ANCOVA) with treatment, time, and treatment by time as fixed factors, participant as a random factor, and the (average) baseline measurement as a covariate.

[1] = tested on: memory (Visual Verbal Learning Task); settings: oral QD 12 days; dose and day in value
Experimental: as §1, §2, §3

EEG power = test: Quantitative electroencephalography (qEEG)
Experimental: A clinical study was developed to evaluate safety, tolerability, pharmacokinetics, and pharmacodynamics of Compound 1 at plasma steady-state in 40 healthy human volunteers. Compound 1 (provided as Compound 1 phosphate) was administered to participants as multiple ascending doses of 0.5 mg (N=6), 1.0 mg (N=6), 1.5 mg (N=6), 2.0 mg (N=6), or 5.0 mg (N=6) once daily (QD) for 12 days.
as §2, §3

[2] = oral QD 12 days, dose and day in value

## CC(C)(O)c1cnn2c(-c3ccc(F)c(-c4c(F)cccc4C#N)c3)cnc2n1 [Compound 1, 2′,6-difluoro-5′-(3-(2-hydroxypropan-2-yl)imidazo[1,2-b][1,2,4]triazin-7-yl)-[1,1′-biphenyl]-2-carbonitrile]
CNS function (NEUROCART); 1.5 mg Cohort
  consistency of effects on SPV, body sway, VAS perception and feeling high: less consistent effects
CNS function (NEUROCART); oral QD 12 days, any dose, Day 1 or Day 12
  VAS mood or VAS calmness: Did not affect VAS mood or VAS calmness at any dose on either Day 1 or Day 12
CNS function (NEUROCART); [2]
  VAS external perception and VAS internal perception (Bowdle): remained unaffected at 1.0 mg, 2.0 mg, and 5.0 mg but significantly increased at 1.5 mg on Day 1 and Day 12
  VAS feeling high (Bowdle): significantly increased at 0.5 mg on Day 1 and Day 12, and at 1.5 mg on Day 12 with no apparent dose-related effect
  body sway: significantly increased body sway at 5.0 mg on Day 1; also recorded: Significantly increased body sway at the highest dose level of 5.0 mg on Day 1 but not on Day 12; also recorded: significantly increased body sway at 5.0 mg acutely
  left pupil/iris ratio: Significantly reduced left pupil/iris ratio at 1.0 mg, 1.5 mg, and 5.0 mg on Day 1 but not on Day 12
  saccadic reaction time: Significantly increased saccadic reaction time only at the highest dose level of 5.0 mg on Day 1, but not on Day 12
  smooth pursuit eye movements: Significantly decreased smooth pursuit eye movements at 0.5 mg, 1.5 mg, and 5.0 mg on Day 1 but not on Day 12
[1]
  delayed word recognition: Significantly decreased delayed word recognition but not immediate recall or delayed recall at 2.0 mg on Day 12, but not on Day 1
  immediate recall and delayed recall/recognition: Significantly decreased immediate recall and decreased delayed recall/recognition at 5.0 mg on Day 1, but not on Day 12
  reaction time for delayed word recognition: Significantly increased reaction time for delayed word recognition at 1.5 mg on Day 1, but not on Day 12; also recorded: inconsistent effects on reaction time for delayed word recognition up to 1.5 mg
EEG power; any dose level
  EEG gamma-power Pz-O2 (eyes open): No treatment effect on Pz-O2 (eyes open) for any dose level
EEG power; any dose, Day 1 or Day 12
  EEG beta-power Pz-O1 or Pz-O2 (eyes open and closed): No treatment effect on Pz-O1 or Pz-O2 (eyes open and eyes dosed) at any dose on Day 1 or Day 12
EEG power; dose and day in value
  EEG alpha-power Fz-Cz (eyes closed): Significant decrease in Fz-Cz (eyes dosed) at 1.5 mg, 2.0 mg, and 5.0 mg on Day 12
  EEG alpha-power Fz-Cz (eyes open): Significant decrease in Fz-Cz (eyes open) at 1.5 mg on Day 1 and at 1.5 mg, 2.0 mg, and 5.0 mg on Day 12
  EEG alpha-power Pz-O1 (eyes closed): Significant decrease in Pz-O1 (eyes closed) at 1.5 mg on Day 1 and at 1.5 mg, 2.0 mg, and 5.0 mg on Day 12
  EEG alpha-power Pz-O1 (eyes open): Significant decrease in Pz-O1 (eyes open) at 1.5 mg, 2.0 mg, and 5.0 mg on Day 12
  EEG alpha-power Pz-O2 (eyes closed): Significant decrease in Pz-O2 (eyes dosed) at 1.5 mg, 2.0 mg, and 5.0 mg on Day 12
  EEG alpha-power Pz-O2 (eyes open): Significant decrease in Pz-O2 (eyes open) at 1.5 mg, 2.0 mg, and 5.0 mg on Day 12
  EEG beta-power Fz-Cz (eyes closed): Significant increase in Fz-Cz (eyes closed) at 2.0 mg and 5.0 mg on Day 1 but at none of the doses on Day 12
  EEG beta-power Fz-Cz (eyes open): Significant increase in Fz-Cz (eyes open) at 2.0 mg and 5.0 mg on Day 1 and at 0.5 mg, 2.0 mg, and 5.0 mg on Day 12
  EEG delta-power Fz-Cz (eyes closed): Significant decrease in Fz-Cz (eyes closed) at all dose levels on Day 12
  EEG delta-power Fz-Cz (eyes open): Significant decrease in Fz-Cz (eyes open) only at 1.0 mg on Day 12
  EEG delta-power Pz-O1 (eyes closed): Significant decrease in Pz-O1 (eyes closed) at 1.0 mg, 1.5 mg, 2.0 mg, and 5.0 mg on Day 12
  EEG delta-power Pz-O1 and Pz-O2 (eyes open): Significant decrease in Pz-O1 and Pz-O2 (eyes open) at 1.5 mg, 2.0 mg, and 5.0 mg on Day 12
  EEG delta-power Pz-O2 (eyes closed): Significant decrease in Pz-O2 (eyes closed) at all dose levels on Day 12
  EEG gamma-power Fz-Cz (eyes closed and eyes open): Significant increase in Fz-Cz (eyes closed and eyes open) at 2.0 mg on Day 1 and at 2.0 mg and 5.0 mg on Day 12
  EEG gamma-power Pz-O1 (eyes closed and eyes open): Significant decrease in Pz-O1 (eyes dosed and eyes open) at 1.5 mg, 2.0 mg, and 5.0 mg on Day 1
  EEG gamma-power Pz-O2 (eyes closed): No treatment effect on Pz-O2 (eyes closed) for any dose level except for 5.0 mg on Day 12
  EEG theta-power Fz-Cz (eyes closed and eyes open): Significant decrease in Fz-Cz (eyes closed and eyes open) at 1.0 mg, 1.5 mg, 2.0 mg, and 5.0 mg on Day 12
  EEG theta-power Pz-O1 and Pz-O2 (eyes closed and eyes open): Significant decrease in Pz-O1 and Pz-O2 (eyes closed and eyes open) at 1.5 mg, 2.0 mg, and 5.0 mg on Day 12
EEG power; doses >1.5 mg, Day 12
  most consistent effects on qEEG: decreased alpha- and theta-power on Day 12 that were suggestive of dose- or concentration-dependence and target engagement, but the increased beta-power on Day 12 did not suggest dose- or concentration-dependence; also recorded: decreased alpha- and theta-power, and increased beta-power
